Earlier results on 1 compound are cited in patent publication US20210154335A1, “DYE AGGREGATES-CONTAINING NANOPARTICLES AND USES THEREOF” (BOARD OF REGENTS, THE UNIVERSITY OF TEXAS SYSTEM, priority 2019, published 2021).

The conditions of the series: in vivo.

In the case of `CC1(C)C(/C=C/C=C/C=C/C=C2\N(CCCCS(=O)(=O)O)c3ccc4ccccc4c3C2(C)C)=[N+](CCCCS(=O)(=O)[O-])c2ccc3ccccc3c21` [ICG, indocyanine green], the blood circulation half-life was 2 to 4 min.
